Experimental data as given in ChEMBL document CHEMBL1132128, “Novel halogenated sulfonamides inhibit the growth of multidrug resistant MCF-7/ADR cancer cells” (1999).

Key:
Assay type in all cases: functional
[1] = test system: HeLa; experiment: Cytotoxic activity against human cervical adenocarcinoma-derived HeLa cell lines
[2] = test system: MCF7; experiment: Cytotoxic activity against human breast tumor-derived MCF-7 cell lines
[3] = test system: NCI/ADR-RES; experiment: Cytotoxic activity against MCF-7/ADR cell lines; conditions: Homo sapiens

Structure (SMILES) | GI50 [1] [µM] | GI50 [2] [µM] | GI50 [3] [µM]
COc1ccc(NS(=O)(=O)c2c(F)cc(F)cc2F)cc1 | > 50 | > 50 | > 50
COc1ccc(NS(=O)(=O)c2c(F)cc(F)c(F)c2F)cc1 | 5.8 | 4.5 | 4.5
COc1ccc(NS(=O)(=O)c2cc(F)c(F)c(F)c2)cc1 | 3.9 | 2 | 3.4
COc1ccc(NS(=O)(=O)c2c(F)c(F)c(F)c(F)c2F)cc1 | 0.099 | 0.029 | 0.058
COc1ccc(NS(=O)(=O)c2c(F)c(F)cc(F)c2F)cc1 | > 50 | > 50 | > 50
COc1ccc(NS(=O)(=O)c2ccc(F)c(F)c2F)cc1 | > 50 | > 50 | > 50
COc1ccc(NS(=O)(=O)c2c(F)c(Cl)c(F)c(Cl)c2F)cc1 | 0.096 | 0.037 | 0.058
CC(=O)O[C@H]1C(=O)[C@@]2(C)[C@H]([C@H](OC(=O)c3ccccc3)[C@]3(O)C[C@H](OC(=O)[C@H](O)[C@@H](NC(=O)c4ccccc4)c4ccccc4)C(C)=C1C3(C)C)[C@]1(OC(C)=O)CO[C@@H]1C[C@@H]2O [PACLITAXEL] | 0.007 | 0.0011 | > 50
COc1ccc(NS(=O)(=O)c2cc(F)c(Cl)c(F)c2F)cc1 | 21 | 44 | 22
COc1ccc(NS(=O)(=O)c2c(F)c(F)c(Br)c(F)c2F)cc1 | 17 | 36 | 21
COc1ccc(NS(=O)(=O)c2c(F)c(F)c(F)c(Br)c2F)cc1 | 0.22 | 0.27 | 0.19
COc1ccc(NS(=O)(=O)c2c(F)c(F)c(F)c(F)c2Br)cc1 | 0.16 | 0.039 | 0.16
COc1ccc(NS(=O)(=O)c2cc(F)c(F)c(F)c2F)cc1 | 0.37 | 0.12 | 0.4
